Experimental data published in US11414402B2, “Sulfonamide-substituted cyanopyrrolidines with activity as DUB inhibitors” (MISSION THERAPEUTICS LIMITED, priority 2017, dated 2022).

Columns and labels:
[1] = target: USP30 (Homo sapiens (Human), UniProt Q70CQ3); assay: USP30 biochemical IC50 assay (fluorescence polarisation); details: USP30 CD (57-517); 30 min preincubation at room temp; TAMRA-peptide-ubiquitin substrate 50 nM; read after 2-hour incubation; read-out: IC50 range
Procedure: (§1) A typical 8-point dilution series would be 100, 30, 10, 3, 1, 0.3, 0.1, 0.03 μM final. […] Either 1 μl of 50% DMSO or diluted compound was added to the plate. USP30 was diluted in reaction buffer (40 mM Tris, pH 7.5, 0.005% Tween 20, 0.5 mg/ml BSA, 5 mM beta-mercaptoethanol) to the equivalent of 0.05 μl/well and 10 μl of diluted USP30 was added to the compound. Enzyme and compound were incubated for 30 min at room temp. Reactions were initiated by the addition of 50 nM of TAMRA labelled peptide linked to ubiquitin via an iso-peptide bond as fluorescence polarisation substrate. Reactions were read immediately after addition of substrate and following a 2-hour incubation at room temperature. Readings were performed on a Pherastar Plus (BMG Labtech). λ Excitation 540 nm; λ Emission 590 nm.

[2] = target: UCHL1 (Homo sapiens (Human), UniProt P09936); assay: UCHL1 biochemical IC50 assay (fluorescence polarisation); details: FLAG-UCHL1; 30 min preincubation at room temp; TAMRA-peptide-ubiquitin substrate 50 nM; read after 2-hour incubation; read-out: IC50 range
Procedure: The UCHL1 construct was PCR amplified and cloned into a pFLAG-CMV-6a vector (Sigma-Aldrich) with an N-terminal FLAG tag. HEK293T cells were transfected with FLAG-UCHL1 using TransIT-LT1 transfection reagent (Mirus) according to the manufacturer's instructions. Cells were harvested 40 hours after transfection. […] The resin was washed two times with low salt buffer and one time with high salt buffer (20 mM Tris, pH 7.5, 500 mM NaCl, 0.5 mM EDTA, 5 mM beta-mercaptoethanol, protease inhibitors (complete mini, Roche) and phosphatase inhibitors (PhosSTOP mini, Roche). To elute the bound UCHL1, elution buffer (10 mM Tris, pH 7.5, 150 mM NaCl, 0.5 mM EDTA, 10% glycerol, 0.5% NP40, 5 mM beta-mercaptoethanol, 0.15 mg/ml 3× FLAG peptide (Sigma-Aldrich)) was added to the resin and incubated at 4° C. for 2.5 hours rotating. The resin was centrifuged at 4000 rpm for 30 seconds, and the supernatant containing purified FLAG-UCHL1 was removed and stored at −80° C.
UCHL1 was diluted in reaction buffer (20 mM Tris, pH 7.5, 100 mM NaCl, 0.05% Tween 20, 0.5 mg/ml BSA, 5 mM beta-mercaptoethanol) to the equivalent of 0, 0.01, 0.05, 0.1, 0.5, and 1 μl/well. Buffer was optimised for optimal temperature, pH, reducing agent, salts, time of incubation, and detergent. Reactions were initiated by the addition of 50 nM of TAMRA labelled peptide linked to ubiquitin via an iso-peptide bond as fluorescence polarisation substrate. Reactions were incubated at room temperature and read every 2 min for 120 min. Readings were performed on a Pherastar Plus (BMG Labtech). λ Excitation 540 nm; λ Emission 590 nm.
as §1, with “to” for “would”, “be” for “be 100,”, “0.03, 0.01” for “0.03”, “UCHL1” for “USP30”, “(20” for “(40”, “100 mM NaCl, 0.05%” for “0.005%”

Sequence of USP30 (Q70CQ3 57-517): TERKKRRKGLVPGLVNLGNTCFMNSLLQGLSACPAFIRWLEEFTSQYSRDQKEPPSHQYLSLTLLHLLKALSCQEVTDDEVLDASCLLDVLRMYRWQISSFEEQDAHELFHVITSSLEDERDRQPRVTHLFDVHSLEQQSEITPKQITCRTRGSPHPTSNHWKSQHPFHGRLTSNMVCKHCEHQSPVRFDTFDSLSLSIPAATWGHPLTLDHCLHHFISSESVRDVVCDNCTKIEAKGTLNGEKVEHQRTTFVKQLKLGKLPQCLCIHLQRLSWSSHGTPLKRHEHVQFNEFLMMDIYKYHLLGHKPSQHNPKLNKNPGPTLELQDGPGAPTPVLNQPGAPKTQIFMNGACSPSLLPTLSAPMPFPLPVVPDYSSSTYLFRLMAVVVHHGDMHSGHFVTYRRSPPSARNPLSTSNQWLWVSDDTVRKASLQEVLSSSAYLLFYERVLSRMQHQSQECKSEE
Sequence of UCHL1 (P09936 whole entry): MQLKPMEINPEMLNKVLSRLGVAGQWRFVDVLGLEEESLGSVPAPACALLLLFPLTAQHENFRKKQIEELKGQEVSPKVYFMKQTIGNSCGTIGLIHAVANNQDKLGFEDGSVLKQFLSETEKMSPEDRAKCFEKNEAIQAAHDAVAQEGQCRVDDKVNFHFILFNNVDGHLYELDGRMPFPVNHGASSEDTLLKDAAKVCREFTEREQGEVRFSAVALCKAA

| IC50 [1] [nM] | IC50 [2] [nM] | Compound |
| --- | --- | --- |
| 100 to 1000 | 1000 to 10000 | Cn1cc(-c2ccc(S(=O)(=O)NC3CCN(C#N)C3)cc2)cn1 (stereo not shown) [Example 15, N-(1-cyanopyrrolidin-3-yl)-4-(1-methyl-1H-pyrazol-4-yl)benzenesulfonamide] |
| 100 to 1000 | 10000 to 100000 | N#CN1CCC(NS(=O)(=O)c2ccc(Oc3ccccc3)nc2)C1 (stereo not shown) [Example 16, N-(1-cyanopyrrolidin-3-yl)-6-phenoxypyridine-3-sulfonamide] |
